The values below come from patent publication US8501762B2, “Tetrahydroprotoberberine compounds, the synthetic method and the use thereof” (Shanghai Institute of Materia Medica, Chinese Academy of …, priority 2005, dated 2013).

One may read the inhibition as the relative decrease from the control value, in per cent. A higher inhibition goes with strong suppression. One may read the Ki as a measure of affinity in units of concentration, obtained from inhibition or displacement. As a reminder, the melting point is the temperature of the solid-liquid transition.

Structures can show the parent of a compound that is named as a salt.

In one data set the target is dopamine D1 receptor (Homo sapiens, UniProt P21728). The data set is described as follows: Dopamine receptor competitive binding, D1. The following applies: for inhibition at 10 µM / Inhibition(%) for D1: tested at 1 × 10^−5 mol/L; for Ki: calculated from the inhibition data. As for the experimental part:
(§1) 1. Dopamine Receptor Binding Studies
The Ki is calculated according the inhibition data tested.

In the next data set the target is dopamine D2 receptor (Homo sapiens, UniProt P14416). The data set is described as follows: Dopamine receptor competitive binding, D2. The following applies: for inhibition at 10 µM / Inhibition(%) for D2: tested at 1 × 10^−5 mol/L; for Ki: calculated from the inhibition data. As for the experimental part:
as §1
The affinities of these compounds on dopamine receptors were evaluated with competitive receptor binding assays (Acta Pharmacol Sin, 1989, 10:104 and Acta Pharmacol Sin, 2003, 24(3): 225-229). The Ki is calculated according the inhibition data tested.

In the next data set the test system is mice. The data set is described as follows: PCP-induced immobility test in mice. The format is in vivo. The following applies: 20 mg/kg (i.g.), PCP-treated mice; PCP group 78.1±28 s, P<0.05. The protocol:
3. PCP-Induced Immobility Test in Mice
Phencyclidine(PCP)-induced immobility test in mice was selected as the model to evaluate the antipsychotic effect of some compounds of the present invention (Br J Pharmacol, 1995, 116: 2531-2537). The dose is selected according the ED50 of l-CSLMS. Given PCP, immobility times of mice was increased, whereas the active compound can decrease the immobility time. At 20 mg/kg (i.g.), the immobility time of compound of example 47 is 54.9±19 s, and the immobility time of l-CSLMS is 48.0±27 s, which has statistically significant differences (P<0.05) compared to PCP group (78.1±28 s).

The test system of a further data set is 6-OHDA-lesioned rats. The data set is described as follows: 6-OHDA-lesioned rats rotation test. The class given is in vivo. The following applies: 10 mg/kg. The protocol:
2. 6-OHDA-Lesioned Rats Rotation Test
Some of the compounds were evaluated on 6-OHDA-lesioned rats model.

The conditions of data set [1]: preliminary clinic studies, cited from earlier work.

Sequence of dopamine D2 receptor (P14416 whole entry, species assumed): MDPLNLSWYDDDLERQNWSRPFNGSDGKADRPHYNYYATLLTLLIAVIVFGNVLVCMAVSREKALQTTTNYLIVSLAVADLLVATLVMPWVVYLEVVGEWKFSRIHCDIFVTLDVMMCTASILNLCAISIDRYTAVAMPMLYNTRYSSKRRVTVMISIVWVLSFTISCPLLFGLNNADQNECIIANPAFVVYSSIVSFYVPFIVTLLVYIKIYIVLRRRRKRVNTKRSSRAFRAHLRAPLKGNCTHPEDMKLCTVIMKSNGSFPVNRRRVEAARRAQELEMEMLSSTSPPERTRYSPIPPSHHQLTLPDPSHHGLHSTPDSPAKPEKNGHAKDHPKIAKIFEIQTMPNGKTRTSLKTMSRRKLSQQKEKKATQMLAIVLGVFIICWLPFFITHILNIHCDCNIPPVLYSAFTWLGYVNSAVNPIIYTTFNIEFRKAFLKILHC
Sequence of dopamine D1 receptor (P21728 whole entry): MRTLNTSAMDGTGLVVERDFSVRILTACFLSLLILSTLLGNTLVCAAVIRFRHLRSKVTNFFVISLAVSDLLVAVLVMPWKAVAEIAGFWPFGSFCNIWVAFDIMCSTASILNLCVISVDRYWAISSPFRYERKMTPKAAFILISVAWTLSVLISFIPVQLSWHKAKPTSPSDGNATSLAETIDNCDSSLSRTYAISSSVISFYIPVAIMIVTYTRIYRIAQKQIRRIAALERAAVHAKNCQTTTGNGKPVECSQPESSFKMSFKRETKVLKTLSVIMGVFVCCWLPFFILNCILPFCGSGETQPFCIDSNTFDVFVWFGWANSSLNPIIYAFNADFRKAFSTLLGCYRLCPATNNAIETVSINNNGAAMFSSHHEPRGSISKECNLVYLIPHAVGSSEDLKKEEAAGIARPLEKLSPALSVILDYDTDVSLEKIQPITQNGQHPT

For `COc1cc2c(cc1OC(C)=O)C1Cc3c(Cl)cc(OC)c(OC(C)=O)c3CN1CC2` (single isomer, unassigned; (-)) [Example 47, (−)-2,9-diacetoxy-3,10-dimethoxy-12-chloro-5,8,13,13a-tetrahydro-6H-dibenzo[a,g]quinolizine], the figures for the inhibition at 10 µM on dopamine D1 receptor and at dopamine D2 receptor were 100% and 77.4%, respectively. Moreover, the immobility time in the data set with mice was found to be 54.9 ± 19 s.

Turning to `COc1cc2c(cc1OC(C)=O)C1Cc3ccc(OC(C)=O)c(OC)c3CN1CC2` (single isomer, unassigned; (-)) [Example 48, (−)-2,10-diacetoxy-3,9-dimethoxy-5,8,13,13a-tetrahydro-6H-dibenzo[a,g]quinolizine], the “effect in 6-OHDA-lesioned rats model” value with 6-OHDA-lesioned rats is reported as “positive effects”.

With `COc1cc2c(cc1O)C1Cc3c(Cl)cc(OC)c(OC(C)=O)c3CN1CC2` (single isomer, unassigned; (-)) [Example 50, (−)-2-hydroxy-3,10-dimethoxy-9-acetoxy-12-chloro-5,8,13,13a-tetrahydro-6H-dibenzo[a,g]quinolizine], the inhibition at 10 µM at dopamine D1 receptor turned out to be 100%. Further, the “Inhibition(%) for D2” value at dopamine D2 receptor is given as 58.5%.

As to `COc1cc2c(cc1O)C1Cc3c(Cl)cc(OC)c(O)c3CN1CC2` (stereo not drawn) [CSL, 2,9-dihydroxy-3,10-dimethoxy-12-chloro-5,8,13,13a-tetrahydro-6H-dibenzo[a,g]quinolizine, reference compound], the Ki on dopamine D1 receptor was 6.1 ± 3 nM.

For `COc1cc2c(cc1O)C1Cc3c(Cl)cc(OC)c(OC(C)=O)c3CN1CC2` (stereo not drawn) [Example 7, 2-hydroxy-3,10-dimethoxy-9-acetoxy-12-chloro-5,8,13,13a-tetrahydro-6H-dibenzo[a,g]quinolizine], at dopamine D1 receptor, the Ki is 10.7 ± 1 nM and the “Inhibition(%) for D1” value amounted to 100%. Besides, the “effect in 6-OHDA-lesioned rats model” value with 6-OHDA-lesioned rats was “positive effects”. At dopamine D2 receptor, the Ki is 6.9 ± 1.5 µM and the “Inhibition(%) for D2” value came to 100.0%.

For `CC(=O)O.COc1cc2c(cc1OC(C)=O)C1Cc3c(Cl)cc(OC)c(OC(C)=O)c3CN1CC2` (stereo not drawn) [Example 8, 2,9-diacetoxy-3,10-dimethoxy-12-chloro-5,8,13,13a-tetrahydro-6H-dibenzo[a,g]quinolizine acetate], the “Inhibition(%) for D1” value at dopamine D1 receptor was found to be 100.0%. The “Inhibition(%) for D2” value on dopamine D2 receptor turned out to be 93.8%.

With `COc1cc2c(cc1O)C1Cc3c(Cl)cc(OC)c(OCCO)c3CN1CC2` (stereo not drawn) [Example 17, 2-hydroxy-3,10-dimethoxy-9-(2-hydroxy-ethoxy)-12-chloro-5,8,13,13a-tetrahydro-6H-dibenzo[a,g]quinolizine], the values for the inhibition at 10 µM on dopamine D1 receptor and on dopamine D2 receptor were 97.9% and 57.4%, respectively.

`COc1cc2c(cc1OCc1ccccc1)C1Cc3c(Cl)cc(OC)c(OCCOCCO)c3CN1CC2` (stereo not drawn) [Example 18, 2-benzyloxy-3,10-dimethoxy-9-[2-(2-hydroxy-ethoxy)-ethoxy]-12-chloro-5,8,13,13a-tetrahydro-6H-dibenzo[a,g]quinolizine] yielded a melting point of 122 °C.

`CCOC(=O)Oc1c(OC)cc(Cl)c2c1CN1CCc3cc(OC)c(O)cc3C1C2` (stereo not drawn) [Example 21, 2-hydroxy-3,10-dimethoxy-9-ethoxycarbonyloxy-12-chloro-5,8,13,13a-tetrahydro-6H-dibenzo[a,g]quinolizine]: on dopamine D1 receptor, the Ki is 2.6 ± 0.7 nM and the inhibition at 10 µM is 100%. On dopamine D2 receptor, this compound returned an inhibition at 10 µM of 100%.

As for `COc1cc2c(cc1OCc1ccccc1)C1Cc3c(Cl)cc(OC)c(OC(=O)[C@@H](N)Cc4ccccc4)c3CN1CC2` (stereo partly drawn) [Example 23, 2-benzyloxy-3,10-dimethoxy-9-phenylalanyloxy-12-chloro-5,8,13,13a-tetrahydro-6H-dibenzo[a,g]quinolizine], the inhibition at 10 µM came to 77.5% at dopamine D1 receptor and 44% at dopamine D2 receptor.

For `COc1cc2c(cc1OC(C)=O)C1Cc3ccc(OC)c(OC(C)=O)c3CN1CC2` (stereo not drawn) [Example 34, 2,9-diacetoxy-3,10-dimethoxy-5,8,13,13a-tetrahydro-6H-dibenzo[a,g]quinolizine], at dopamine D1 receptor, the Ki is 51.8 ± 32.2 nM and the inhibition at 10 µM is 99.4%. In addition, on dopamine D2 receptor, the Ki was 10.6 ± 2.6 µM and the inhibition at 10 µM worked out at 90.7%.

For the compound `COCCOCCOCC(=O)Oc1cc2c(cc1OC)CCN1Cc3c(c(Cl)cc(OC)c3OC(=O)COCCOCCOC)CC21` (stereo not drawn) [Example 42, 2,9-bis-{2-[2-(2-methoxy-ethoxy)-ethoxy]-acetoxy-}3,10-dimethoxy-12-chloro-5,8,13,13a-tetrahydro-6H-dibenzo[a,g]quinolizine], at dopamine D1 receptor, the Ki is 35.4 ± 4.4 nM and the inhibition at 10 µM worked out at 96.2%. On dopamine D2 receptor, the Ki was 14.9 ± 0.2 µM and testing at 10 µM gave an inhibition of 39.7%.

For `COCCOCCOCC(=O)Oc1c(OC)cc(Cl)c2c1CN1CCc3cc(OC)c(O)cc3C1C2` (stereo not drawn) [Example 43, 2-hydroxy-3,10-dimethoxy-9-{2-[2-(2-methoxy-ethoxy)-ethoxy]-acetoxy-}-12-chloro-5,8,13,13a-tetrahydro-6H-dibenzo[a,g]quinolizine], the inhibition constant Ki at dopamine D1 receptor was 404 ± 188 nM.

Turning to `Oc1cc2c(cc1O)C1Cc3c(Cl)cc(O)c(O)c3CN1CC2` (stereo not drawn) [Example 44, 2,3,9,10-tetrahydroxy-12-chloro-5,8,13,13a-tetrahydro-6H-dibenzo[a,g]quinolizine], the inhibition at 10 µM is 100% on dopamine D1 receptor and 93.3% on dopamine D2 receptor. Besides, the “effect in 6-OHDA-lesioned rats model” value with 6-OHDA-lesioned rats was “positive effects”.

As to `COc1cc(F)c2c(c1OC)CN1CCc3cc4c(cc3C1C2)OCO4` (stereo not drawn) [Example 63, 2,3-methylenedioxyl-9,10-dimethoxy-12-fluoro-5,8,13,13a-tetrahydro-6H-dibenzo[a,g]quinolizine], the “Inhibition(%) for D1” value on dopamine D1 receptor is given as 95.2%.

Take `COc1cc2c(cc1O)[C@@H]1Cc3c(Cl)cc(OC)c(O)c3CN1CC2` [l-CSLMS, S-chloroscoulerine mesylate, reference compound]: the Ki at dopamine D2 receptor is 1.7 ± 0.5 µM. The immobility time with mice came out at 48.0 ± 27 s.

`COc1cc2c(cc1O)[C@@H]1Cc3ccc(O)c(OC)c3CN1CC2` [l-SPD, l-Stepholidine]: in data set [1] (schizophrenia), the side effects entry was “few side effects”. Further, in data set [1], the “activity in the treatment of schizophrenia” value is given as “favorable activity”.
